Assays:
[1] = target: T1, PYR1 K59R F159I (Arabidopsis thaliana, UniProt O49686, F159I/K59R); assay: Y2H Pocket Library Screen (HAB1, X-gal); type: cell-based
T1 construct: expressed in transfected cells; host or cells: S. cerevisiae Y190 two-hybrid reporter strain
Description: (§1) The set of 475 mutant plasmids were individually transformed into the Y190 yeast two hybrid reporter strain co-transformed with pACT-HAB1, as previously described (Park et al., 2009). The yeast strains generated were arrayed into 96-well plates yielding what we refer to as the “pocket library”. The pocket library strains were spotted onto agar plates containing selective synthetic dextrose (minus Leu & Trp) medium that was supplemented with a single test compound at 100 μM. The pocket library strains were separately tested for responsiveness to the following compounds: dichlobenil, benzothiadiazole, mandipropamid, fludioxonil, and benoxacor. After incubating test plates at 30° C. for two days, colonies were chloroform lysed and stained to reveal β-galactosidase expression levels, using previously described methods (Park et al., 2009). Mutants displaying responsiveness to the test compound, if present, were identified by virtue of X-gal staining and then subjected to subsequent optimization efforts. Using this approach we identified mutations that conferred detectable sensitivity to the compounds tested (see entries labeled “Pocket Library Screens” in Table 1).

[2] = target: T2, PYR1 K59R F159V (Arabidopsis thaliana, UniProt O49686, F159V/K59R); assay: Y2H Pocket Library Screen (HAB1, X-gal); type: cell-based
T2 construct: expressed in transfected cells; host or cells: S. cerevisiae Y190
T2 sequence (O49686 whole entry K59R/F159V): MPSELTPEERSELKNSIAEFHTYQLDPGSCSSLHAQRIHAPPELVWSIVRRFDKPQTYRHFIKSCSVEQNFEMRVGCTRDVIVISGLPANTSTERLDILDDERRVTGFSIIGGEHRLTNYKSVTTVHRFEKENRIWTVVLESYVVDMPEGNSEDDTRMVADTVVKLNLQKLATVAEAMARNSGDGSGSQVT
T2 sequence (Q9CAJ0 23-511, further chain): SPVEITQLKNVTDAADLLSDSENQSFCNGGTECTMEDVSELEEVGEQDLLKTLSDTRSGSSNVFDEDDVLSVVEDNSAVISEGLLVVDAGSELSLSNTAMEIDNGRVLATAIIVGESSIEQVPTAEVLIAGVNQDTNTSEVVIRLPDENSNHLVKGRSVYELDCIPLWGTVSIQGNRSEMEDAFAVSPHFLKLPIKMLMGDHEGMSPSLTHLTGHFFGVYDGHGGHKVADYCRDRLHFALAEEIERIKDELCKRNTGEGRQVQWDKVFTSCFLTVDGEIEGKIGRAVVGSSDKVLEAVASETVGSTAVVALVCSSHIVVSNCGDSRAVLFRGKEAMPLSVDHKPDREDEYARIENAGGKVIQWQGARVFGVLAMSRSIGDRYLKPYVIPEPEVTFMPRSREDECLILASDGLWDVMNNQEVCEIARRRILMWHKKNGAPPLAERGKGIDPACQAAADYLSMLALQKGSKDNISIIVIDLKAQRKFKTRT
Description: as §1

[3] = target: T3, PYR1 K59R F159L (Arabidopsis thaliana, UniProt O49686, F159L/K59R); assay: Y2H Pocket Library Screen (HAB1, X-gal); type: cell-based
T3 construct: expressed in transfected cells; host or cells: S. cerevisiae Y190
T3 sequence (O49686 whole entry K59R/F159L): as the sequence (O49686 whole entry K59R/F159V) above, with V159L counted along it
T3 sequence (Q9CAJ0 23-511, further chain): as the sequence (Q9CAJ0 23-511, further chain) above
Description: as §1

[4] = target: T4, PYR1 K59R F108E (Arabidopsis thaliana, UniProt O49686, F108E/K59R); assay: Y2H Pocket Library Screen (HAB1, X-gal); type: cell-based
T4 construct: expressed in transfected cells; host or cells: S. cerevisiae Y190 yeast two-hybrid reporter strain
T4 sequence (O49686 whole entry K59R/F108E): as the sequence (O49686 whole entry K59R/F159V) above, with F108E, V159F counted along it
T4 sequence (Q9CAJ0 23-511 partner): as the sequence (Q9CAJ0 23-511, further chain) above
Description: as §1

[5] = target: T5, PYR1 Y58H K59R V81I F108A S122G V164I (Arabidopsis thaliana, UniProt O49686, F108A/K59R/S122G/V164I/V81I/Y58H); assay: Y2H Combinatorial Mutagenesis II (HAB1, X-gal); type: cell-based
T5 construct: expressed in transfected cells; host or cells: S. cerevisiae Y190 pACT-HAB1
T5 sequence (O49686 whole entry Y58H/K59R/V81I/F108A/S122G/V164I): as the sequence (O49686 whole entry K59R/F159V) above, with Y58H, V81I, F108A, S122G, V159F, V164I counted along it
T5 sequence (Q9CAJ0 23-511 partner): as the sequence (Q9CAJ0 23-511, further chain) above
From the text: (§2) Both of the above optimization experiments led to the identification of the following mutations that, when introduced one at a time, enhance the mandipropamid sensitivity of PYR1^K59R,F108A,S122G: Y58H, V81C, V81I, V81T, V83L, L87A, F159L, F159M, F159V, A160V and V164I. Given that these each enhance sensitivity on their own, we tested if combinations of these mutations might generate more sensitive receptors. Mutagenic primers for each of the mutations were designed and used simultaneously with the QuickChange Lightning Multi Site-Directed Mutagenesis kit (Agilent, USA) with PYR1^K59R,F108A,S122G template DNA. Individual clones were sequenced to identify bona fide combination mutants, which were transformed into the Y190 pACT-HAB1 yeast strain and assayed for mandipropamid sensitivity. These efforts led to the identification of several improved receptors (“Combinatorial Mutagenesis Screen II”, Table 1), including PYR1^Y58H,K59R,V81I,F108A,S122G,F159L, a hextuple mutant that we have named PYR1^MANDI. Yeast reporter strains expressing this mutant are responsive to mandipropamid concentrations as low as 2 nM (Table 1). Thus, the 5-step mutagenesis protocol we followed led to the construction of a mandipropamid responsive receptor with nanomolar sensitivity.

[6] = target: T6, PYR1 Y58H K59R V81I F108A S122G (PYR1^MANDI) (Arabidopsis thaliana, UniProt O49686, F108A/F159L/K59R/S122G/V81I/Y58H); assay: Y2H Combinatorial Mutagenesis II (HAB1, X-gal); type: cell-based; settings: Y58H K59R V81I F108A S122G F150L
T6 construct: expressed in transfected cells; host or cells: S. cerevisiae Y190 pACT-HAB1
T6 sequence (O49686 whole entry Y58H/K59R/V81I/F108A/S122G/F159L): as the sequence (O49686 whole entry K59R/F159V) above, with Y58H, V81I, F108A, S122G, V159L counted along it
T6 sequence (Q9CAJ0 23-511 partner): as the sequence (Q9CAJ0 23-511, further chain) above
From the text: as §2

[7] = target: T7, PYR1 Y58H K59R V81I F108A S122G (Arabidopsis thaliana, UniProt O49686, F108A/K59R/S122G/V81I/Y58H); assay: Y2H Combinatorial Mutagenesis II (HAB1, X-gal); type: cell-based
T7 construct: expressed in transfected cells; host or cells: S. cerevisiae Y190 pACT-HAB1
T7 sequence (O49686 whole entry Y58H/K59R/V81I/F108A/S122G): as the sequence (O49686 whole entry K59R/F159V) above, with Y58H, V81I, F108A, S122G, V159F counted along it
T7 sequence (Q9CAJ0 23-511 partner): as the sequence (Q9CAJ0 23-511, further chain) above
From the text: as §2

[8] = target: T8, PYR1 Y58H K59R V81I F108A S122G F150L (PYR1^MANDI) (Arabidopsis thaliana, UniProt O49686, F108A/F159L/K59R/S122G/V81I/Y58H); assay: Y2H Combinatorial Mutagenesis II (HAB1, X-gal); type: cell-based; settings: PYR1^MANDI, yeast two hybrid
T8 construct: expressed in transfected cells; host or cells: S. cerevisiae Y190 pACT-HAB1
T8 sequence (O49686 whole entry Y58H/K59R/V81I/F108A/S122G/F159L): as the sequence (O49686 whole entry K59R/F159V) above, with Y58H, V81I, F108A, S122G, V159L counted along it
T8 sequence (Q9CAJ0 23-511 partner): as the sequence (Q9CAJ0 23-511, further chain) above
From the text: as §2

[9] = target: T9, PYR1 Y58H K59R V83L F108A S122G (Arabidopsis thaliana, UniProt O49686, F108A/K59R/S122G/V83L/Y58H); assay: Y2H Combinatorial Mutagenesis II (HAB1, X-gal); type: cell-based
T9 construct: expressed in transfected cells; host or cells: S. cerevisiae Y190 pACT-HAB1
T9 sequence (O49686 whole entry Y58H/K59R/V83L/F108A/S122G): as the sequence (O49686 whole entry K59R/F159V) above, with Y58H, V83L, F108A, S122G, V159F counted along it
T9 sequence (Q9CAJ0 23-511 partner): as the sequence (Q9CAJ0 23-511, further chain) above
From the text: as §2

[10] = target: T10, PYR1 K59R V81I F108A S122G A160V (Arabidopsis thaliana, UniProt O49686, A160V/F108A/K59R/S122G/V81I); assay: Y2H Combinatorial Mutagenesis II (HAB1, X-gal); type: cell-based
T10 construct: expressed in transfected cells; host or cells: S. cerevisiae Y190 pACT-HAB1
T10 sequence (O49686 whole entry K59R/V81I/F108A/S122G/A160V): as the sequence (O49686 whole entry K59R/F159V) above, with V81I, F108A, S122G, V159F, A160V counted along it
T10 sequence (Q9CAJ0 23-511 partner): as the sequence (Q9CAJ0 23-511, further chain) above
From the text: as §2

[11] = system: PYR1^MANDI expressing transgenic plants (E15, E16, F29, F34); assay: water loss of detached rosettes; type: in vivo, Arabidopsis; settings: 2 μM mandipropamid, 24 hours before detachment
Description: As another measure of guard cell physiology, we measured rates of water loss in transgenic and control plants exposed to mock or mandipropamid treatments. It is well known that ABA treatments reduce leaf water loss via guard cell closure. 3 week-old homozygous transgenic plants (E15, E16, F29 and F34) and control wild type plants were treated with 2 μM mandipropamid or mock solutions (with 0.02% Silwet as described above). After 24 hours, whole rosettes were detached and their masses monitored over time. […] These experiments, together with the thermal imaging experiments, indicate that mandipropamid can reduce guard cell aperture and reduce transpiration rates in PYR1^MANDI expressing transgenic plants, just as ABA is well known to do to wild type plants.

T1 sequence (O49686 whole entry K59R/F159I): as the sequence (O49686 whole entry K59R/F159V) above, with V159I counted along it
T1 sequence (Q9CAJ0 23-511, further chain): as the sequence (Q9CAJ0 23-511, further chain) above

N#Cc1c(Cl)cccc1Cl [Dichlobenil, dichlobenil]
Threshold [1]: 100 µM
Threshold [2]: 100 µM
Threshold [3]: 100 µM
Threshold [4]: 100 µM

C#CCOc1ccc(CCNC(=O)C(OCC#C)c2ccc(Cl)cc2)cc1OC (stereo not drawn) [Mandipropamid, mandipropamid]
Threshold [1]: 100 µM
Threshold [2]: 100 µM
Threshold [3]: 100 µM
Threshold [4]: 100 µM
Threshold [5]: 0.01 µM
Threshold [6]: 0.002 µM
Threshold [7]: 0.05 µM
lowest mandipropamid concentration with detectable PYR1^MANDI-HAB1 interaction in yeast reporter strain [8]: 2 nM
Threshold [9]: 0.01 µM
Threshold [10]: 0.05 µM
water loss of detached rosettes [11]: lower water loss
